Here are results for one sequence from US8492520B2, “Binding epitopes for G250 antibody” (Wilex AG, priority 2007, dated 2013).

The test concerns G250 antibody. In words: conformational epitope mapping of carbonic anhydrase IX peptide sections on scaffolds, binding to G250 antibody. Conditions: core sequences shared by the best-binding peptides. The procedure:
Short peptide sections of CA-IX which bind to the G250 antibody were determined by means of conformational epitope mapping of carbonic anhydrase using the scaffolds shown in FIG. 2. The following 15 sequences were identified as peptide sections having the highest binding capacity: […]

As to LSTAFARV [SEQ ID NO:1], the “recognition by G250 antibody (rank of epitope sequence)” value is “dominantly recognized”.
